System: gut-liver interaction with immune cells
Assay: donor-matched gut-liver interaction with immune cells challenged with Poly:IC
Format: cell-based, human
Settings: intestinal challenge, mimicking viral infection, FIG. 12
Source text: A single-cell RNA sequencing characterization of 3 donor-matched blood, gut and liver tissue is shown at 1202. On top, T cell clustering per tissue is shown, including PBMCS (PB), liver (L), and gut lamina propria (LP) and intraepithelial space (IEL). On the bottom, a distribution of major T cell subtypes per tissue is shown including CD4 T cells, CD8 T cells, and gamma-delta T cells. […] The interacting system was challenged with Poly:IC mimicking viral infection. […] On the bottom, liver albumin production data compare the three conditions.

Substance: Poly: IC
- inflammatory cytokines detected in common media: significant induction
